For seven molecules, IC50 and IC90 results are on record in ChEMBL document CHEMBL1133752, “Synthesis and antiviral evaluation of trisubstituted indole N-nucleosides as analogues of 2,5,6-trichloro-1-(beta-D-ribofuranosyl)benzimidazole (TCRB)” (J Med Chem, 2000).

Some results are limits rather than exact numbers.

Experiment [1] can be described thus: Inhibition of KB cell growth was determined. The experiment is classed as functional, cell-based. Particulars: Homo sapiens.
Experiment [2] can be described thus: ELISA assay was performed using BSC-1 cells to determine activity against HSV-1. The experiment is classed as functional, cell-based, Cercopithecidae.
Experiment [3] concerns HFF. Kind of experiment: Antiviral activity against HCMV was determined by yield reduction assay using HFF cells. Type of experiment: functional. As to conditions: Homo sapiens.
In experiment [4] the test system is HFF. The experiment can be described thus: Visual cytotoxicity was scored on HFF cells at time of HCMV plaque enumeration. The experiment is classed as functional, cell-based. Particulars: Homo sapiens.
For experiment [5], the system named is HFF. The experiment can be described thus: Antiviral activity against HCMV was determined by plaque reduction assay using HFF cells. Particulars: Homo sapiens. The experiment is classed as functional, cell-based. Background: Plaques are areas of infected cells; plaque reduction assays count them against a control.

On to `OC[C@H]1OC(n2c(Cl)cc3cc(Cl)c(Cl)cc32)[C@H](O)[C@@H]1O` (some centres not stated), for which the IC50 is above 100 µM in experiment [1], above 100 µM in experiment [2], above 100 µM in the experiment on HFF [4] and 42 µM with HFF [5]. The 90% effect concentration (IC90) in the experiment with HFF [3] was found to be 50 µM.
Consider `OC[C@H]1OC(n2c(Br)cc3cc(Cl)c(Cl)cc32)[C@H](O)[C@@H]1O` (some centres not stated), for which the half-maximal inhibitory concentration (IC50) in experiment [1] was above 100 µM; in experiment [2], above 100 µM; in the experiment on HFF [4], 100 µM; in the experiment on HFF [5], 18 µM. Moreover, the 90% effect level with HFF [3] (IC90) was put at 42 µM.
In the case of `OC[C@H]1O[C@@H](n2c(SCc3ccccc3)cc3cc(Cl)c(Cl)cc32)CC1O` (some centres not stated), the IC50 in experiment [1] came out at 60 µM; in experiment [2] it was 40 µM; with HFF [4], 32 µM; in the experiment on HFF [5], 32 µM.
As for `Nc1nc2c(ncn2COC(CO)CO)c(=O)[nH]1` [GANCICLOVIR], the 50% inhibitory concentration (IC50) is above 100 µM in experiment [1], 3.5 µM in experiment [2] and above 100 µM in the experiment with HFF [4]. The molecule also came in with an IC90 in the experiment on HFF [3] of 1.6 µM.
With `OC[C@H]1O[C@@H](n2c(Cl)nc3cc(Cl)c(Cl)cc32)[C@H](O)[C@@H]1O`, the figures for the IC50 in experiment [1] and in experiment [2] were 210 µM and 102 µM, respectively. The same molecule came in with an IC90 in the experiment on HFF [3] of 1.4 µM.
On to `O=C(O)P(=O)(O)O` [FOSCARNET], for which the IC50 in the experiment on HFF [4] was above 100 µM; in the experiment on HFF [5] it was 39 µM.
As to `Clc1cc2cc(Br)[nH]c2cc1Cl`, the half-maximal inhibitory concentration (IC50) in experiment [1] was found to be 70 µM; in experiment [2] it was 70 µM; in the experiment with HFF [4], 32 µM; in the experiment with HFF [5] it was 14 µM.

By IC50 is commonly meant the concentration that gives 50% inhibition. Higher therefore signals weaker potency in that assay. Broadly, the IC90 is the point of the concentration-response curve where the effect stands at 90%. Higher therefore signals a need for much substance.
